In PubChem BioAssay AID2744 (NMMLSC, 2010):
Active and inactive are the calls of the source.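 How the source made its calls: active means fitted half-maximal concentration for changing reporter fluorescence at or below a set limit; inactive means the rest.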

Biological target: Citrate synthase, peroxisomal (Saccharomyces cerevisiae (strain ATCC 204508 / S288c)) (UniProt P08679)
Assay: yeast TOR pathway CIT2-GFP reporter potency – flow cytometry, MLPCN hits, dose response (AID 2744)
Conditions: S. cerevisiae CIT2-GFP strain, 3 h, at 33 µM (top of the series)

Sequence of Citrate synthase, peroxisomal (Saccharomyces cerevisiae (strain ATCC 204508 / S288c)) (P08679 whole entry, looked up): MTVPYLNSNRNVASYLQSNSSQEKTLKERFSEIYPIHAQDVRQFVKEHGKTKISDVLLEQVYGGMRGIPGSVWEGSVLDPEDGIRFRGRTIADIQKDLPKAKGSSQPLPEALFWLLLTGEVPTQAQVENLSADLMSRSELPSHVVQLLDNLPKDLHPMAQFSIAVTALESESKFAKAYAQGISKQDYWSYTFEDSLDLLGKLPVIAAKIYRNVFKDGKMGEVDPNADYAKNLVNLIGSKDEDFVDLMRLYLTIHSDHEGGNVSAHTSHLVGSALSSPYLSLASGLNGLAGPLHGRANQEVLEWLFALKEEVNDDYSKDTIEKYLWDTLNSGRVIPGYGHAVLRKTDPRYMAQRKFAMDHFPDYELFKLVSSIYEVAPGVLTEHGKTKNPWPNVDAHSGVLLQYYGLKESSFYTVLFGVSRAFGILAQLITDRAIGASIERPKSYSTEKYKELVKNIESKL

Row | Compound | GFP fluorescence, higher = induction
1 | O=C(O)c1ccc(COc2ccccc2C=C2C(=O)c3ccccc3C2=O)cc1 | inactive
2 | COc1cccc(/C=C2\C(=O)N(c3cccc(C)c3)C(=O)c3ccccc32)c1 | inactive
3 | CN1CCN(C(c2ccc(C(F)(F)F)cc2)c2ccc3cccnc3c2O)CC1 (stereo not drawn) | inactive
4 | CCOc1ccc(C(Nc2cccnc2)c2cc(Cl)c3cccnc3c2O)cc1 (stereo not drawn) | inactive
5 | Cc1c(NC2=C(Cl)C(=O)N(c3ccccc3Cl)C2=O)c(=O)n(-c2ccccc2)n1C | inactive
6 | Cc1cc(C)c(OCC(=O)Nc2nc(-c3ccccn3)cs2)c(C)c1 | inactive
7 | CC(C)[C@]1(c2ccc(Cl)cc2)ON(c2ccccc2C(F)(F)F)C1=O | inactive
8 | Cc1[nH]n(-c2ccccc2)c(=O)c1C(c1ccccc1[N+](=O)[O-])C(C#N)C#N (stereo not drawn) | inactive
9 | COc1ccc([C@@]2(C(C)C)ON(c3ccccc3C(F)(F)F)C2=O)cc1 | inactive
10 | CCCCc1ccc(NC(=O)CC(C)=O)cc1 | inactive
11 | O=c1oc2cc(Oc3c([N+](=O)[O-])cc(C(F)(F)F)cc3[N+](=O)[O-])ccc2c2c1CCCC2 | inactive
12 | O=C(NNC(=S)NC(=O)c1ccco1)c1ccc(F)cc1 | inactive
13 | COc1cc(/C=C2/C(=O)ON=C2c2ccccc2)ccc1O | inactive
14 | CCCCOc1ccc(C(=O)NNC(=S)NC(=O)CC)cc1 | inactive
15 | CCCS(=O)(=O)c1nnnn1-c1cccc(OC)c1 | inactive
16 | CCN1C(=O)/C(=C\C(=O)c2cccs2)c2cc(Br)ccc21 | inactive
17 | CC(C)[C@]1(c2ccccc2)ON(c2ccccc2C(F)(F)F)C1=O | inactive
18 | COc1ccc(N2C(=O)/C(=C/c3cccs3)C(=O)NC2=S)cc1 | inactive
19 | CCCc1nnc(NC(=O)c2c(O)c3cccc4c3n(c2=O)CCC4)s1 | inactive

Row | Compound | GFP fluorescence, higher = induction
20 | CCC(=O)Oc1oc(-c2ccccc2)nc1C=Nc1ccc(C)cc1 | inactive
21 | O=C1ON=C(c2ccccc2)/C1=C/c1ccco1 | inactive
22 | Cc1ccc2[nH]c(C)c(/C=C/c3cc[n+](C)cc3)c2c1 | inactive
23 | O=C(NC(=S)NNC(=O)[C@H]1C[C@@H]1c1ccccc1)c1cccc(F)c1 | inactive
24 | CC(=O)CSc1ncnc2c1cnn2-c1ccccc1 | inactive
25 | O=C(COc1ccccc1)NNC(=S)NC(=O)c1ccccc1 | inactive
26 | CC(=O)SC(C[N+](=O)[O-])c1cn(C(C)=O)c2ccccc12 (stereo not drawn) | inactive
27 | Cc1cc(S(=O)(=O)ON2C(=O)c3ccccc3C2=O)ccc1F | inactive
28 | CCOC(=O)COc1ccc2ccccc2c1/C=C/[N+](=O)[O-] | inactive
29 | CCOC(=O)C(C(=O)OCC)C(C(=O)OCC)N1CCOCC1 (stereo not drawn) | inactive
30 | COc1cccc(/C=N/Nc2ccc([N+](=O)[O-])cn2)c1O | inactive
31 | CCCCCCCCn1sccc1=O | inactive
32 | Cc1ccccc1C(=O)NNC(=S)NC(=O)c1ccc(Cl)cc1Cl | inactive
33 | O=C1Nc2ccccc2/C1=C\C(=O)c1ccccc1 | inactive
34 | CCN(CC)c1ccc2cc(-c3nc4ccccc4[nH]3)c(=O)oc2c1 | inactive
35 | COc1ccc2c(c1)c(/C=C/c1cc[n+](C)cc1)cn2C | inactive
36 | O=C(/C=C/c1ccccc1Cl)c1ccccc(=O)c1O | inactive
37 | CCn1c(=O)c(C(C)=O)c(O)c2ccccc21 | inactive
38 | CCN(CC(=O)NC(C)(C)C)C(=O)COc1c(Cl)cc(Cl)c2ccc(C)nc12 | inactive

Row | Compound | GFP fluorescence, higher = induction
39 | CC1=NOC(=O)/C1=C\c1ccc(-c2cc(Cl)ccc2Cl)o1 | inactive
40 | N=C1S/C(=C\c2ccco2)C(=O)N1c1nccs1 | inactive
41 | CCC(C)/C(C)=N/NC(=O)c1ccc(COc2ccc(Cl)c(C)c2)cc1 (stereo not drawn) | inactive
42 | C[n+]1ccc(/C=C/c2c[nH]c3ccccc23)cc1 | inactive
43 | O=C(Oc1c(Cl)cc(Cl)c2cccnc12)c1ccco1 | inactive
44 | O=C1CC(c2ccccc2)=NN1c1nc(-c2ccccc2)cs1 | inactive
45 | O=C1c2ccccc2C(=O)N1OS(=O)(=O)c1ccccc1 | inactive
46 | COC(=O)CCCC1=CC2=CC(=O)C(C)(OC(=O)CCc3ccccc3)C(=O)C2=CO1 (stereo not drawn) | inactive
47 | O=c1oc(/C=C/c2ccc([N+](=O)[O-])s2)nc2ccccc12 | inactive
48 | COc1ccc(N2CCN(C(=O)c3ccccc3)CC2)c([N+](=O)[O-])c1 | inactive
49 | O=C1ON=C(c2ccc(Cl)cc2)/C1=C/c1ccc(O)cc1 | inactive
50 | O=C(COc1ccccc1)NNC(=S)NC(=O)c1ccc(Cl)cc1Cl | inactive
51 | O=C(NC(=S)NNC(=O)c1ccc(Cl)cc1Cl)c1cccnc1 | inactive
52 | CC(C)(C)n1nc(-c2ccc(F)cc2)c2c(N)ncnc21 | inactive
53 | Cc1ccc(C(c2cc(Cl)c3cccnc3c2O)N2CCN(C)CC2)cc1 (stereo not drawn) | inactive
54 | O=C(Nc1ccc(O)cc1)C1CCCN1S(=O)(=O)c1ccc(F)cc1 (stereo not drawn) | inactive
55 | Cc1[nH]n(-c2ncc(-c3ccccc3)s2)c(=O)c1C(c1ccc(Cl)cc1)C(C#N)C#N (stereo not drawn) | inactive
56 | COc1ccc2c(c1)S/C(=C\C(=O)c1ccncc1)N2C | inactive

Same assay, conditions: S. cerevisiae CIT2-GFP strain, flow cytometry fluorescence, 3 h

Row | Compound | EC50 [nM]
57 | N/C(Cc1ccc(Cl)cc1)=N\OC(=O)c1cccc2ccccc12 | 1350
58 | CNc1nc(N)c([N+](=O)[O-])c(Nc2cccc(F)c2)n1 | 4360
